Each structure is given as a SMILES string. Active and inactive are the calls of the source. The rule behind the calls is not given here. Bounds are passed on as bounds.

We go through 20 compounds from ChEMBL document CHEMBL4834449, “Anti-inflammatory Eudesmane Sesquiterpenoids from Artemisia hedinii” (2021).

Test [1] concerns BMDM. The test can be described thus: Antiinflammatory activity in LPS-induced in C57 mouse BMDM cells assessed as reduction in IL-12 mRNA expression at 20 uM incubated for 12 hrs by qRT-PCR analysis. The format is functional, cell-based.
Test [2] has as its system BMDM. The test is described as follows: Antiinflammatory activity in LPS-induced in C57 mouse BMDM cells assessed as reduction in TNFalpha mRNA expression at 20 uM incubated for 12 hrs by qRT-PCR analysis. The format is functional, cell-based. In general terms: In qPCR the cycle at which signal appears reflects the starting amount.
The test system of test [3] is BMDM. The test can be described thus: Antiinflammatory activity in LPS-induced in C57 mouse BMDM cells assessed as reduction in IFN-gamma level at 10 to 20 uM by ELISA (Rvb < 7.8 pg/ml). The class given is functional. Particulars: dose 10-20 µM.
Test [4] relates to BMDM. The test is described as follows: Antiinflammatory activity in LPS-induced in C57 mouse BMDM cells assessed as reduction in TNFalpha level by ELISA. The class given is functional, cell-based. Background: ELISA stands for enzyme-linked immunosorbent assay.
For test [5], the system named is BMDM. The test is described as follows: Antiinflammatory activity in LPS-induced in C57 mouse BMDM cells assessed as reduction in IL-6 level by ELISA. The class given is functional, cell-based.
Test [6] deals with BMDM. The test can be described thus: Antiinflammatory activity in LPS-induced in C57 mouse BMDM cells assessed as reduction in IFN-gamma level at 5 to 20 uM by ELISA (Rvb < 7.8 pg/ml). Particulars: dose 5-20 µM. The class given is functional.

`C=C(C(=O)O)[C@H]1CC2=C(CO)CCC[C@]2(C)[C@@H](OC(C)=O)C1`: the inhibition entry with BMDM [1] and in the test on BMDM [2] was “Active” in each case.
In the case of `C=C(C(=O)O)[C@H]1CC2=C(C)[C@H](OCC)CC[C@]2(C)[C@@H](OC(C)=O)C1`, the inhibition entry with BMDM [1] and with BMDM [2] was “Active” each time.
Consider `C=C(C(=O)O)[C@H]1CC2=C(C)CCC[C@]2(C)[C@@H](O)C1`, for which, in the test on BMDM [3], the Activity is less than 7.8 pg/mL. The inhibition entry with BMDM [3], with BMDM [4] and in the test on BMDM [5] was “Dose-Dependent Effect” throughout. The inhibition entry in the test with BMDM [1] and with BMDM [2] was “Active” throughout.
On to `C=C(C(=O)O)[C@@H]1C[C@H](OC(C)=O)[C@@]2(C)CCCC(=C)[C@@]2(O)C1`, for which the inhibition entry with BMDM [1] and with BMDM [2] was “Active” each time.
`C[C@]12CCC(=O)C=C1[C@H](O)[C@H]([C@](C)(O)CO)CC2`: the Activity in the test with BMDM [6] was less than 7.8 pg/mL. Moreover, the inhibition result in the test on BMDM [6], with BMDM [4] and in the test on BMDM [5] was “Dose-Dependent Effect” each time. The inhibition entry in the test with BMDM [1] and with BMDM [2] was “Active” throughout.
For the compound `C=C(C(=O)O)[C@H]1C=C2C(C)=CCC[C@]2(C)[C@@H](OC(C)=O)C1`, the inhibition result in the test on BMDM [1] and in the test on BMDM [2] was “Active” throughout.
On to `C=C(C(=O)O)[C@H]1CC2=C(C(=O)O)CCC[C@]2(C)[C@@H](OC(C)=O)C1`, for which the inhibition entry in the test on BMDM [1] and in the test on BMDM [2] was “Active” throughout.
As for `C=C(C(=O)O)[C@@H]1C[C@H](OC(C)=O)[C@@]2(C)CCCC(=C)[C@]2(O)C1`, the Activity in the test on BMDM [6] was less than 7.8 pg/mL. Moreover, the inhibition result with BMDM [6], with BMDM [4] and in the test on BMDM [5] was “Dose-Dependent Effect” in each case. Further, the inhibition result in the test on BMDM [1] and with BMDM [2] was “Active” each time.
Take `C=C(C(=O)O)[C@H]1CC2=C(C)[C@H](O)CC[C@]2(C)[C@@H](OC(C)=O)C1`: the inhibition entry with BMDM [1] and in the test with BMDM [2] was “Active” in each case.
`C=C(C(=O)O)[C@H]1C=C2C(C)=CCC[C@]2(C)[C@@H](O)C1`: in the test on BMDM [6], the Activity is less than 7.8 pg/mL. For the same compound, the inhibition entry with BMDM [6], in the test on BMDM [4] and with BMDM [5] was “Dose-Dependent Effect” each time. Further, the inhibition result with BMDM [1] and in the test on BMDM [2] was “Active” in each case.
Take `C=C(C(=O)O)[C@H]1CC2=C(C)C(=O)CC[C@]2(C)[C@@H](O)C1`: the inhibition result in the test with BMDM [1] and in the test on BMDM [2] was “Active” each time.
For `C=C(C(=O)O)[C@H]1CC2=C(C=O)CCC[C@]2(C)[C@@H](O)C1`, the inhibition entry with BMDM [1] and in the test on BMDM [2] was “Active” each time.
Consider `C=C(C(=O)O)[C@H]1CC2=C(C)CCC[C@]2(C)[C@@H](OC(C)=O)C1`, for which the inhibition entry in the test on BMDM [1] and in the test on BMDM [2] was “Active” in each case.
Regarding `C=C(C(=O)O)[C@@H]1C[C@H](O)[C@@]2(C)CCCC(=C)[C@]2(O)C1`, the inhibition entry with BMDM [1] and in the test on BMDM [2] was “Active” each time.
For the compound `C=C(C(=O)O)[C@H]1CC2=C(C)[C@@H](O)CC[C@]2(C)[C@@H](OC(C)=O)C1`, the inhibition entry in the test on BMDM [1] and in the test with BMDM [2] was “Active” each time.
For `C=C(C(=O)O)[C@H]1CC2=C(C)C(=O)CC[C@]2(C)[C@@H](OC(C)=O)C1`, the Activity with BMDM [6] was less than 7.8 pg/mL. Moreover, the inhibition entry with BMDM [6], with BMDM [4] and with BMDM [5] was “Dose-Dependent Effect” throughout. For the same compound, the inhibition entry in the test on BMDM [1] and with BMDM [2] was “Active” each time.
As to `CC(=O)O[C@H]1C[C@@H]([C@](O)(CO)C(=O)O)CC2=C(C)CCC[C@@]21C`, the inhibition entry in the test on BMDM [1] and with BMDM [2] was “Active” each time.
Regarding `C=C(C(=O)O)[C@@H]1CC[C@@]2(C)CCC[C@@](C)(O)[C@@H]2C1`, the inhibition result in the test with BMDM [1] and with BMDM [2] was “Active” throughout.
Consider `C=C(C(=O)O)[C@H]1CC2=C(C)[C@H](OC)CC[C@]2(C)[C@@H](OC(C)=O)C1`, for which the inhibition entry with BMDM [1] and in the test with BMDM [2] was “Active” throughout.
As for `CC(=O)O[C@H]1C[C@@H]([C@@](O)(CO)C(=O)O)CC2=C(C)CCC[C@@]21C`, the Activity in the test on BMDM [3] was less than 7.8 pg/mL. For the same compound, the inhibition result in the test with BMDM [3], with BMDM [4] and in the test on BMDM [5] was “Dose-Dependent Effect” each time. Moreover, the inhibition result in the test on BMDM [1] and in the test on BMDM [2] was “Active” in each case.
